Assay results: PubChem BioAssay AID1963830 (Molecular Pharmacology Branch, DTP, NCI, 2024)

Tested on: 922993-354-T-J3-PDC complex spheroid viability
Experiment: Anticancer human tumor 922993-354-T-J3-PDC patient-derived endometrial carcinoma cell line growth inhibition [POLQ]
Details: for IC50: curve of first compound; for viability, T/C: stronger effect = lower value
Method in brief: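 Patient-derived tumour cells were co-cultured with HUVEC and mesenchymal stem cells as multicellular spheroids at 37 °C. They were treated with POLQ inhibitors (novobiocin, ART-558, RP6685) alone or combined with other agents. Top concentrations were at or near clinical Cmax (otherwise 10 microM; SN-38 at 1 microM), decreasing in half-log steps.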

[1] = second compound 0.0316 µM, first compound 0.0316 µM
[2] = second compound 0.0316 µM, first compound 0.1 µM
[3] = second compound 0.0316 µM, first compound 0.316 µM
[4] = second compound 0.0316 µM, first compound 1 µM
[5] = second compound 0.0316 µM, first compound 3.16 µM
[6] = second compound 0.0316 µM, first compound 10 µM
[7] = second compound 0.1 µM, first compound 0.0316 µM
[8] = second compound 0.1 µM, first compound 0.1 µM
[9] = second compound 0.1 µM, first compound 0.316 µM
[10] = second compound 0.1 µM, first compound 1 µM
[11] = second compound 0.1 µM, first compound 3.16 µM
[12] = second compound 0.1 µM, first compound 10 µM
[13] = second compound 0.316 µM, first compound 0.0316 µM
[14] = second compound 0.316 µM, first compound 0.1 µM
[15] = second compound 0.316 µM, first compound 0.316 µM
[16] = second compound 0.316 µM, first compound 1 µM
[17] = second compound 0.316 µM, first compound 3.16 µM
[18] = second compound 0.316 µM, first compound 10 µM
[19] = second compound 1 µM, first compound 0.0316 µM
[20] = second compound 1 µM, first compound 0.1 µM
[21] = second compound 1 µM, first compound 0.316 µM
[22] = second compound 1 µM, first compound 1 µM
[23] = second compound 1 µM, first compound 3.16 µM
[24] = second compound 1 µM, first compound 10 µM
[25] = second compound 3.16 µM, first compound 0.0316 µM
[26] = second compound 3.16 µM, first compound 0.1 µM
[27] = second compound 3.16 µM, first compound 0.316 µM
[28] = second compound 3.16 µM, first compound 1 µM
[29] = second compound 3.16 µM, first compound 3.16 µM
[30] = second compound 3.16 µM, first compound 10 µM
[31] = second compound 10 µM, first compound 0.0316 µM
[32] = second compound 10 µM, first compound 0.1 µM
[33] = second compound 10 µM, first compound 0.316 µM
[34] = second compound 10 µM, first compound 1 µM
[35] = second compound 10 µM, first compound 3.16 µM
[36] = second compound 10 µM, first compound 10 µM
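Further: spheroids exposed to the agents for one week.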
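Wherever viability, T/C is given: 100% = DMSO vehicle control wells.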

**Q.** `COc1cc(C2c3cc4c(cc3C(OC3OC5COC(C)OC5C(O)C3O)C3COC(=O)C23)OCO4)cc(OC)c1O` (stereo unspecified) + Nc1ccc(C#CCN(C(=O)Cc2ncc(C(F)(F)F)cc2C(F)(F)F)c2ccc(F)cc2)nn1 was tested. Which IC50 (second compound 0.0316 µM) did it give?
**A.** > 10 µM

**Q.** And the IC50 (second compound 0.1 µM)?
**A.** > 10 µM

**Q.** And the IC50 (second compound 0.316 µM)?
**A.** > 10 µM

**Q.** What about the IC50 (second compound 1 µM) of the same compound?
**A.** > 10 µM

**Q.** And the IC50 (second compound 3.16 µM)?
**A.** > 10 µM

**Q.** What about the IC50 (second compound 10 µM) of the same compound?
**A.** 4.39 µM

**Q.** What about the viability, T/C [1] of the same compound?
**A.** 108%

**Q.** And the viability, T/C [2]?
**A.** 106%

**Q.** What about the viability, T/C [3] of the same compound?
**A.** 101%

**Q.** What about the viability, T/C [4] of the same compound?
**A.** 105%

**Q.** What about the viability, T/C [5] of the same compound?
**A.** 90.9%

**Q.** What about the viability, T/C [6] of the same compound?
**A.** 81%

**Q.** And the viability, T/C [7]?
**A.** 103%

**Q.** What about the viability, T/C [8] of the same compound?
**A.** 102%

**Q.** What about the viability, T/C [9] of the same compound?
**A.** 104%

**Q.** And the viability, T/C [10]?
**A.** 98.2%

**Q.** And the viability, T/C [11]?
**A.** 97.4%

**Q.** What about the viability, T/C [12] of the same compound?
**A.** 71.4%

**Q.** And the viability, T/C [13]?
**A.** 101%

**Q.** What about the viability, T/C [14] of the same compound?
**A.** 105%

**Q.** What about the viability, T/C [15] of the same compound?
**A.** 100%

**Q.** What about the viability, T/C [16] of the same compound?
**A.** 104%

**Q.** And the viability, T/C [17]?
**A.** 94.2%

**Q.** What about the viability, T/C [18] of the same compound?
**A.** 76%

**Q.** And the viability, T/C [19]?
**A.** 105%

**Q.** And the viability, T/C [20]?
**A.** 103%

**Q.** What about the viability, T/C [21] of the same compound?
**A.** 103%

**Q.** And the viability, T/C [22]?
**A.** 100%

**Q.** What about the viability, T/C [23] of the same compound?
**A.** 96.1%

**Q.** What about the viability, T/C [24] of the same compound?
**A.** 77%

**Q.** What about the viability, T/C [25] of the same compound?
**A.** 103%

**Q.** And the viability, T/C [26]?
**A.** 97.2%

**Q.** And the viability, T/C [27]?
**A.** 98%

**Q.** What about the viability, T/C [28] of the same compound?
**A.** 95.6%

**Q.** What about the viability, T/C [29] of the same compound?
**A.** 88%

**Q.** What about the viability, T/C [30] of the same compound?
**A.** 67.6%

**Q.** And the viability, T/C [31]?
**A.** 100%

**Q.** And the viability, T/C [32]?
**A.** 90.5%

**Q.** And the viability, T/C [33]?
**A.** 91.2%

**Q.** What about the viability, T/C [34] of the same compound?
**A.** 75.1%

**Q.** What about the viability, T/C [35] of the same compound?
**A.** 62.2%

**Q.** And the viability, T/C [36]?
**A.** 25.3%

**Q.** What does the source list for `O=C(c1cc(Cc2n[nH]c(=O)c3ccccc23)ccc1F)N1CCN(C(=O)C2CC2)CC1` + Nc1ccc(C#CCN(C(=O)Cc2ncc(C(F)(F)F)cc2C(F)(F)F)c2ccc(F)cc2)nn1?
**A.** IC50 (second compound 0.0316 µM): > 10 µM; IC50 (second compound 0.1 µM): > 10 µM; IC50 (second compound 0.316 µM): > 10 µM; IC50 (second compound 1 µM): > 10 µM; IC50 (second compound 3.16 µM): > 10 µM; IC50 (second compound 10 µM): > 10 µM; viability, T/C [1]: 107%; viability, T/C [2]: 97.6%; viability, T/C [3]: 99.4%; viability, T/C [4]: 101%; viability, T/C [5]: 102%; viability, T/C [6]: 96.7%; viability, T/C [7]: 104%; viability, T/C [8]: 103%; viability, T/C [9]: 100%; viability, T/C [10]: 98%; viability, T/C [11]: 101%; viability, T/C [12]: 95%; viability, T/C [13]: 104%; viability, T/C [14]: 99.5%; viability, T/C [15]: 101%; viability, T/C [16]: 101%; viability, T/C [17]: 102%; viability, T/C [18]: 97.1%; viability, T/C [19]: 99%; viability, T/C [20]: 105%; viability, T/C [21]: 101%; viability, T/C [22]: 96.2%; viability, T/C [23]: 100%; viability, T/C [24]: 100%; viability, T/C [25]: 101%; viability, T/C [26]: 100%; viability, T/C [27]: 99.2%; viability, T/C [28]: 98.6%; viability, T/C [29]: 97.5%; viability, T/C [30]: 101%; viability, T/C [31]: 95.6%; viability, T/C [32]: 96.9%; viability, T/C [33]: 88.8%; viability, T/C [34]: 91.9%; viability, T/C [35]: 94.2%; viability, T/C [36]: 90%

**Q.** For `O=C(c1cc(Cc2n[nH]c(=O)c3ccccc23)ccc1F)N1CCN(C(=O)C2CC2)CC1` + Cc1cccc(N(C)C(=O)C2C(O)CCN2c2nc(C)cc(C(F)(F)F)c2C#N)c1, which IC50 (second compound 0.0316 µM) is on record?
**A.** > 10 µM

**Q.** What about the IC50 (second compound 0.1 µM) of the same compound?
**A.** > 10 µM

**Q.** And the IC50 (second compound 0.316 µM)?
**A.** > 10 µM

**Q.** What about the IC50 (second compound 1 µM) of the same compound?
**A.** > 10 µM

**Q.** What about the IC50 (second compound 3.16 µM) of the same compound?
**A.** > 10 µM

**Q.** And the IC50 (second compound 10 µM)?
**A.** > 10 µM

**Q.** What about the viability, T/C [1] of the same compound?
**A.** 104%

**Q.** What about the viability, T/C [2] of the same compound?
**A.** 103%

**Q.** And the viability, T/C [3]?
**A.** 101%

**Q.** And the viability, T/C [4]?
**A.** 113%

**Q.** What about the viability, T/C [5] of the same compound?
**A.** 99.2%

**Q.** What about the viability, T/C [6] of the same compound?
**A.** 92.4%

**Q.** What about the viability, T/C [7] of the same compound?
**A.** 111%

**Q.** And the viability, T/C [8]?
**A.** 103%

**Q.** And the viability, T/C [9]?
**A.** 111%

**Q.** What about the viability, T/C [10] of the same compound?
**A.** 102%

**Q.** And the viability, T/C [11]?
**A.** 103%

**Q.** And the viability, T/C [12]?
**A.** 109%

**Q.** What about the viability, T/C [13] of the same compound?
**A.** 113%

**Q.** And the viability, T/C [14]?
**A.** 108%

**Q.** And the viability, T/C [15]?
**A.** 104%

**Q.** And the viability, T/C [16]?
**A.** 112%

**Q.** And the viability, T/C [17]?
**A.** 92.9%

**Q.** What about the viability, T/C [18] of the same compound?
**A.** 103%

**Q.** What about the viability, T/C [19] of the same compound?
**A.** 96.4%

**Q.** And the viability, T/C [20]?
**A.** 108%

**Q.** And the viability, T/C [21]?
**A.** 106%

**Q.** And the viability, T/C [22]?
**A.** 107%

**Q.** And the viability, T/C [23]?
**A.** 99.1%

**Q.** What about the viability, T/C [24] of the same compound?
**A.** 109%

**Q.** What about the viability, T/C [25] of the same compound?
**A.** 98.3%

**Q.** What about the viability, T/C [26] of the same compound?
**A.** 107%

**Q.** And the viability, T/C [27]?
**A.** 95.3%

**Q.** And the viability, T/C [28]?
**A.** 94.7%

**Q.** And the viability, T/C [29]?
**A.** 109%

**Q.** What about the viability, T/C [30] of the same compound?
**A.** 106%

**Q.** And the viability, T/C [31]?
**A.** 100%

**Q.** And the viability, T/C [32]?
**A.** 97.7%

**Q.** And the viability, T/C [33]?
**A.** 112%

**Q.** What about the viability, T/C [34] of the same compound?
**A.** 104%

**Q.** And the viability, T/C [35]?
**A.** 104%

**Q.** And the viability, T/C [36]?
**A.** 103%
